The target in the assay is T1, IXOSP (Ixodes scapularis salivary serine protease) (Ixodes scapularis, UniProt Q4PMM2).
T1 sequence (Q4PMM2 51-273): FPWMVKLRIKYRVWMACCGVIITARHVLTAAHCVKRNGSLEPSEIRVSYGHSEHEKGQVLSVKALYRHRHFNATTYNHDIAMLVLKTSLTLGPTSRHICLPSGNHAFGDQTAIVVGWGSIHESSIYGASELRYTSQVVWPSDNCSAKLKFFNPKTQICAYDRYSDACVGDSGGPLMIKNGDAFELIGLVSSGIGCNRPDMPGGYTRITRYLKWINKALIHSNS
The assay can be described thus: amidolytic assay, pNA release at […] nm. To be noted: read-out: Inhibition of activity (% ± SD). Format: biochemical.

By inhibition is commonly meant the relative decrease from the control value, in per cent.

*1 amine or outer side, *2 acyl side, *3 side chain or, on linkers, in order; H or OH if unused. Where a SMILES comes first, the peptide text is derived from it. CO = O=C([*:1])[*:2]

As for `CC(C)[C@H](NC(=O)[C@H](CCCNC(=N)N)NC(=O)N[C@@H](Cc1ccccc1)C(=O)O)C(=O)N[C@H](C=O)CCCNC(=N)N` [Antipain] ({Phe-CO}-Arg-Val-Arg-aldehyde), the inhibition at 30 µM was 55 ± 4%.

For the origin of these results see publication PMC3877196 (Toxicon : official journal of the International Society on …, 2013).
